Laboratory results reported in PubChem BioAssay AID2060606 (Molecular Pharmacology Branch, DTP, NCI, 2025).
pIC50: −log10 of the molar value. Where “and” joins values, the source holds several entries; their conditions need not be identical. Identical values can stand only once.

System: 922993-354-T-J3-PDC complex spheroids, viability, % test/control
Assay: Anticancer human tumor 922993-354-T-J3-PDC patient-derived endometrial carcinoma cell line growth inhibition [CLK]
Settings: for viability, T/C: stronger effect = lower value
In short: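 Multi-cell-type spheroids combined patient-derived tumor cells with HUVEC endothelial cells and human mesenchymal stem cells. Paired agents were dosed in half-log steps down from about clinical Cmax, or from 10 microM where Cmax was unknown.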

[1] = curve of first compound, second compound 0.0316 µM
[2] = curve of first compound, second compound 0.1 µM
[3] = curve of first compound, second compound 0.316 µM
[4] = curve of first compound, second compound 1 µM
[5] = curve of first compound, second compound 3.16 µM
[6] = curve of first compound, second compound 10 µM
[7] = second compound 0.0316 µM, first compound 0.00949 µM
[8] = second compound 0.0316 µM, first compound 0.03 µM
[9] = second compound 0.0316 µM, first compound 0.0949 µM
[10] = second compound 0.0316 µM, first compound 0.3 µM
[11] = second compound 0.1 µM, first compound 0.00949 µM
[12] = second compound 0.1 µM, first compound 0.03 µM
[13] = second compound 0.1 µM, first compound 0.0949 µM
[14] = second compound 0.1 µM, first compound 0.3 µM
[15] = second compound 0.316 µM, first compound 0.00949 µM
[16] = second compound 0.316 µM, first compound 0.03 µM
[17] = second compound 0.316 µM, first compound 0.0949 µM
[18] = second compound 0.316 µM, first compound 0.3 µM
[19] = second compound 1 µM, first compound 0.00949 µM
[20] = second compound 1 µM, first compound 0.03 µM
[21] = second compound 1 µM, first compound 0.0949 µM
[22] = second compound 1 µM, first compound 0.3 µM
[23] = second compound 3.16 µM, first compound 0.00949 µM
[24] = second compound 3.16 µM, first compound 0.03 µM
[25] = second compound 3.16 µM, first compound 0.0949 µM
[26] = second compound 3.16 µM, first compound 0.3 µM
[27] = second compound 10 µM, first compound 0.00949 µM
[28] = second compound 10 µM, first compound 0.03 µM
[29] = second compound 10 µM, first compound 0.0949 µM
[30] = second compound 10 µM, first compound 0.3 µM
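Also: spheroids exposed to the agents for 7 days before readout.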

COc1cccc2c1C(=O)c1c(O)c3c(c(O)c1C2=O)CC(O)(C(=O)CO)CC3OC1CC(N)C(O)C(C)O1 (stereo not given) + CNC(=O)c1ccc(Nc2nc(OC3CCCC3)c3c(-c4ccc5nc(C)oc5c4)c[nH]c3n2)c(OC)c1 showed a pIC50 [1] of 5.50, a pIC50 [2] of 5.42 and a pIC50 [3] of 5.72. For the same compound, the pIC50 [4] was greater than 7.50, the pIC50 [5] was greater than 7.50 and the pIC50 [6] was greater than 7.50. It also gave a viability, T/C (second compound 0.0316 µM, first compound 0.0316 µM) of 101%, a viability, T/C (second compound 0.0316 µM, first compound 0.1 µM) of 116% and a viability, T/C (second compound 0.0316 µM, first compound 0.316 µM) of 102%. The viability, T/C (second compound 0.0316 µM, first compound 1 µM) was 78%, the viability, T/C (second compound 0.0316 µM, first compound 3.16 µM) was 52.3% and the viability, T/C (second compound 0.0316 µM, first compound 10 µM) was 22.1%. For the same compound, the viability, T/C (second compound 0.1 µM, first compound 0.0316 µM) was 122%, the viability, T/C (second compound 0.1 µM, first compound 0.1 µM) was 123% and the viability, T/C (second compound 0.1 µM, first compound 0.316 µM) was 108%. The viability, T/C (second compound 0.1 µM, first compound 1 µM) was 85.7%, the viability, T/C (second compound 0.1 µM, first compound 3.16 µM) was 57% and the viability, T/C (second compound 0.1 µM, first compound 10 µM) was 18.7%. It also gave a viability, T/C (second compound 0.316 µM, first compound 0.0316 µM) of 77%, a viability, T/C (second compound 0.316 µM, first compound 0.1 µM) of 63% and a viability, T/C (second compound 0.316 µM, first compound 0.316 µM) of 66.6%. The viability, T/C (second compound 0.316 µM, first compound 1 µM) was 71.3%, the viability, T/C (second compound 0.316 µM, first compound 3.16 µM) was 34.3% and the viability, T/C (second compound 0.316 µM, first compound 10 µM) was 17.5%. The viability, T/C (second compound 1 µM, first compound 0.0316 µM) was 43.1%, the viability, T/C (second compound 1 µM, first compound 0.1 µM) was 44.3% and the viability, T/C (second compound 1 µM, first compound 0.316 µM) was 22.2%. It also gave a viability, T/C (second compound 1 µM, first compound 1 µM) of 23.5%, a viability, T/C (second compound 1 µM, first compound 3.16 µM) of 25.9% and a viability, T/C (second compound 1 µM, first compound 10 µM) of 3.3%. For the same compound, the viability, T/C (second compound 3.16 µM, first compound 0.0316 µM) was 36.8%, the viability, T/C (second compound 3.16 µM, first compound 0.1 µM) was 21.1% and the viability, T/C (second compound 3.16 µM, first compound 0.316 µM) was 18.2%. For the same compound, the viability, T/C (second compound 3.16 µM, first compound 1 µM) was 21.7%, the viability, T/C (second compound 3.16 µM, first compound 3.16 µM) was 10.2% and the viability, T/C (second compound 3.16 µM, first compound 10 µM) was 0.97%. For the same compound, the viability, T/C (second compound 10 µM, first compound 0.0316 µM) was 27.5%, the viability, T/C (second compound 10 µM, first compound 0.1 µM) was 12.8% and the viability, T/C (second compound 10 µM, first compound 0.316 µM) was 16.8%. It also gave a viability, T/C (second compound 10 µM, first compound 1 µM) of 24.5%, a viability, T/C (second compound 10 µM, first compound 3.16 µM) of 3.31% and a viability, T/C (second compound 10 µM, first compound 10 µM) of 1.92%.

CC(C)CC(NC(=O)C(Cc1ccccc1)NC(=O)c1cnccn1)B(O)O (stereo not given) + CN1CCN(c2cc(C(=O)Nc3cc4cc(-c5cnn(C)c5)ccc4cn3)ccn2)CC1 was tested, and the pIC50 [1] was 8.19, the pIC50 [2] was 8.18 and the pIC50 [3] was greater than 9.02. It also gave a pIC50 [4] greater than 9.02, a pIC50 [5] greater than 9.02 and a pIC50 [6] greater than 9.02. It also gave a viability, T/C (second compound 0.0316 µM, first compound 0.000949 µM) of 103%, a viability, T/C (second compound 0.0316 µM, first compound 0.003 µM) of 85.5% and a viability, T/C [7] of 32.6%. The viability, T/C [8] was 6.15%, the viability, T/C [9] was 1.44% and the viability, T/C [10] was 1.26%. It also gave a viability, T/C (second compound 0.1 µM, first compound 0.000949 µM) of 94.7%, a viability, T/C (second compound 0.1 µM, first compound 0.003 µM) of 74.5% and a viability, T/C [11] of 40.2%. For the same compound, the viability, T/C [12] was 8.34%, the viability, T/C [13] was 1.08% and the viability, T/C [14] was 1.56%. The viability, T/C (second compound 0.316 µM, first compound 0.000949 µM) was 50.3%, the viability, T/C (second compound 0.316 µM, first compound 0.003 µM) was 28.6% and the viability, T/C [15] was 20.6%. For the same compound, the viability, T/C [16] was 6.46%, the viability, T/C [17] was 1.39% and the viability, T/C [18] was 0.48%. The viability, T/C (second compound 1 µM, first compound 0.000949 µM) was 0.16%, the viability, T/C (second compound 1 µM, first compound 0.003 µM) was 1.6% and the viability, T/C [19] was 0.98%. For the same compound, the viability, T/C [20] was 0.44%, the viability, T/C [21] was 0.08% and the viability, T/C [22] was 0.48%. It also gave a viability, T/C (second compound 3.16 µM, first compound 0.000949 µM) of 0.1%, a viability, T/C (second compound 3.16 µM, first compound 0.003 µM) of 0.68% and a viability, T/C [23] of 1%. The viability, T/C [24] was 0.07%, the viability, T/C [25] was 0.83% and the viability, T/C [26] was 0.79%. It also gave a viability, T/C (second compound 10 µM, first compound 0.000949 µM) of 0.08%, a viability, T/C (second compound 10 µM, first compound 0.003 µM) of 1.39% and a viability, T/C [27] of 0.12%. For the same compound, the viability, T/C [28] was 0.16%, the viability, T/C [29] was 2.52% and the viability, T/C [30] was 2.16%.

In the case of NC(=O)C(=Cn1cnc(-c2cc(C(F)(F)F)cc(C(F)(F)F)c2)n1)c1cncnc1 + CNC(=O)c1ccc(Nc2nc(OC3CCCC3)c3c(-c4ccc5nc(C)oc5c4)c[nH]c3n2)c(OC)c1, the pIC50 [1] was 6.23, the pIC50 [2] was 6.33 and the pIC50 [3] was 6.69. For the same compound, the pIC50 [4] was 7.31, the pIC50 [5] was 7.35 and the pIC50 [6] was 7.44. It also gave a viability, T/C [7] of 120%, a viability, T/C [8] of 123% and a viability, T/C [9] of 98.3%. For the same compound, the viability, T/C [10] was 57.7%, the viability, T/C (second compound 0.0316 µM, first compound 0.949 µM) was 50.4% and the viability, T/C (second compound 0.0316 µM, first compound 3 µM) was 34.6%. It also gave a viability, T/C [11] of 107%, a viability, T/C [12] of 120% and a viability, T/C [13] of 102%. For the same compound, the viability, T/C [14] was 54%, the viability, T/C (second compound 0.1 µM, first compound 0.949 µM) was 49.4% and the viability, T/C (second compound 0.1 µM, first compound 3 µM) was 36.7%. The viability, T/C [15] was 81.1%, the viability, T/C [16] was 99% and the viability, T/C [17] was 71%. It also gave a viability, T/C [18] of 37.3%, a viability, T/C (second compound 0.316 µM, first compound 0.949 µM) of 41.7% and a viability, T/C (second compound 0.316 µM, first compound 3 µM) of 40.2%. For the same compound, the viability, T/C [19] was 56.8%, the viability, T/C [20] was 63.2% and the viability, T/C [21] was 36.2%. For the same compound, the viability, T/C [22] was 18%, the viability, T/C (second compound 1 µM, first compound 0.949 µM) was 29% and the viability, T/C (second compound 1 µM, first compound 3 µM) was 22.2%. It also gave a viability, T/C [23] of 58.8%, a viability, T/C [24] of 67.8% and a viability, T/C [25] of 24.5%. The viability, T/C [26] was 12.4%, the viability, T/C (second compound 3.16 µM, first compound 0.949 µM) was 18.9% and the viability, T/C (second compound 3.16 µM, first compound 3 µM) was 6.38%. It also gave a viability, T/C [27] of 46.6%, a viability, T/C [28] of 65.3% and a viability, T/C [29] of 20.4%. The viability, T/C [30] was 8.4%, the viability, T/C (second compound 10 µM, first compound 0.949 µM) was 11.9% and the viability, T/C (second compound 10 µM, first compound 3 µM) was 3.1%.

In the case of CCc1c2c(nc3ccc(O)cc13)-c1cc3c(c(=O)n1C2)COC(=O)[C@]3(O)CC, the viability, T/C (compound 0.00316 µM) was 84.6% and 97.6%, the viability, T/C (compound 0.01 µM) was 38% and 69.2% and the viability, T/C (compound 0.0316 µM) was 12.8% and 21.2%. For the same compound, the viability, T/C (compound 0.1 µM) was 13.1% and 16%, the viability, T/C (compound 0.316 µM) was 17% and 25.4% and the viability, T/C (compound 1 µM) was 22% and 27.1%. For the same compound, the pIC50 (curve of compound) was 8.13 and 7.79.

For C=C(F)C(=O)N1CCN(c2nc(OCC3CCCN3C)nc3c2CCN(c2cccc4cccc(Cl)c24)C3)CC1CC#N (stereo not given), the viability, T/C (compound 0.0316 µM) was 96.9% and 91.5%, the viability, T/C (compound 0.1 µM) was 97.8% and 100% and the viability, T/C (compound 0.316 µM) was 93.3% and 104%. The viability, T/C (compound 1 µM) was 91.2% and 92%, the viability, T/C (compound 3.16 µM) was 79.4% and 67.9% and the viability, T/C (compound 10 µM) was 2.9% and 0.21%. The pIC50 (curve of compound) was 5.31 and 5.37.
